In brackets after ≈: the same amount, converted by molar mass.
How the values were obtained:
Type in all cases: functional
Escherichia coli [1] = assay: Antimicrobial activity against Escherichia coli TOP10 harboring pSmQnr8 carrying Smqnr gene by Etest
Escherichia coli [2] = assay: Antimicrobial activity against Escherichia coli TOP10 harboring pSmQnr7 carrying Smqnr gene by Etest
Escherichia coli [3] = assay: Antimicrobial activity against Escherichia coli TOP10 harboring pSmQnr3 carrying Smqnr gene by Etest
Escherichia coli [4] = assay: Antimicrobial activity against Escherichia coli TOP10 harboring pSmQnr9 carrying Smqnr gene by Etest
Escherichia coli [5] = assay: Antimicrobial activity against Escherichia coli TOP10 harboring pSmQnr6 carrying Smqnr gene by Etest
Escherichia coli [6] = assay: Antimicrobial activity against Escherichia coli TOP10 harboring pSmQnr11 carrying Smqnr gene by Etest
Escherichia coli [7] = assay: Antimicrobial activity against Escherichia coli TOP10 harboring pSmQnr4 carrying Smqnr gene by Etest
Escherichia coli [8] = assay: Antimicrobial activity against Escherichia coli TOP10 by Etest
Escherichia coli [9] = assay: Antimicrobial activity against Escherichia coli TOP10 harboring pSmQnr1 carrying Smqnr gene by Etest
Escherichia coli [10] = assay: Antimicrobial activity against Escherichia coli TOP10 harboring pSmQnr10 carrying Smqnr gene by Etest
Escherichia coli [11] = assay: Antimicrobial activity against Escherichia coli TOP10 harboring pSmQnr5 carrying Smqnr gene by Etest
Escherichia coli [12] = assay: Antimicrobial activity against Escherichia coli TOP10 harboring pSmQnr2 carrying Smqnr gene by Etest

SMILES | MIC (Escherichia coli [1]) | MIC (Escherichia coli [2]) | MIC (Escherichia coli [3]) | MIC (Escherichia coli [4]) | MIC (Escherichia coli [5]) | MIC (Escherichia coli [6]) | MIC (Escherichia coli [7]) | MIC (Escherichia coli [8]) | MIC (Escherichia coli [9]) | MIC (Escherichia coli [10]) | MIC (Escherichia coli [11]) | MIC (Escherichia coli [12])
COc1c(N2CCNC(C)C2)c(F)cc2c(=O)c(C(=O)O)cn(C3CC3)c12 (stereo unspecified) [GATIFLOXACIN] | 0.002 µg/mL (≈ 0.00533 µM) | 0.023 µg/mL (≈ 0.0613 µM) | 0.003 µg/mL (≈ 0.00799 µM) | 0.002 µg/mL (≈ 0.00533 µM) | 0.064 µg/mL (≈ 0.17 µM) | 0.003 µg/mL (≈ 0.00799 µM) | 0.002 µg/mL (≈ 0.00533 µM) | < 0.002 µg/mL | 0.008 µg/mL (≈ 0.0213 µM) | 0.003 µg/mL (≈ 0.00799 µM) |  | 
C[C@H]1COc2c(N3CCN(C)CC3)c(F)cc3c(=O)c(C(=O)O)cn1c23.C[C@H]1COc2c(N3CCN(C)CC3)c(F)cc3c(=O)c(C(=O)O)cn1c23.O [LEVOFLOXACIN] |  | 0.023 µg/mL | 0.006 µg/mL |  | 0.023 µg/mL |  | 0.006 µg/mL | 0.004 µg/mL | 0.023 µg/mL | 0.023 µg/mL |  | 
COc1c(N2C[C@@H]3CCCN[C@@H]3C2)c(F)cc2c(=O)c(C(=O)O)cn(C3CC3)c12 [MOXIFLOXACIN] | 0.002 µg/mL (≈ 0.00498 µM) | 0.008 µg/mL (≈ 0.0199 µM) | 0.002 µg/mL (≈ 0.00498 µM) |  | 0.047 µg/mL (≈ 0.117 µM) | 0.002 µg/mL (≈ 0.00498 µM) | 0.002 µg/mL (≈ 0.00498 µM) | < 0.002 µg/mL | 0.012 µg/mL (≈ 0.0299 µM) | 0.004 µg/mL (≈ 0.00996 µM) | 0.003 µg/mL (≈ 0.00747 µM) | 
CCn1cc(C(=O)O)c(=O)c2ccc(C)nc21 [NALIDIXIC ACID] | 2 µg/mL (≈ 8.61 µM) | 2 µg/mL (≈ 8.61 µM) | 1.5 µg/mL (≈ 6.46 µM) | 1.5 µg/mL (≈ 6.46 µM) | 2 µg/mL (≈ 8.61 µM) | 2 µg/mL (≈ 8.61 µM) | 1.5 µg/mL (≈ 6.46 µM) | 1.5 µg/mL (≈ 6.46 µM) | 3 µg/mL (≈ 12.9 µM) | 2 µg/mL (≈ 8.61 µM) | 2 µg/mL (≈ 8.61 µM) | 2 µg/mL (≈ 8.61 µM)
CCn1cc(C(=O)O)c(=O)c2cc(F)c(N3CCNCC3)cc21 [NORFLOXACIN] | 0.047 µg/mL (≈ 0.147 µM) | 0.047 µg/mL (≈ 0.147 µM) | 0.032 µg/mL (≈ 0.1 µM) | 0.032 µg/mL (≈ 0.1 µM) | 0.064 µg/mL (≈ 0.2 µM) | 0.032 µg/mL (≈ 0.1 µM) | 0.032 µg/mL (≈ 0.1 µM) | 0.032 µg/mL (≈ 0.1 µM) | 0.064 µg/mL (≈ 0.2 µM) | 0.032 µg/mL (≈ 0.1 µM) | 0.032 µg/mL (≈ 0.1 µM) | 0.047 µg/mL (≈ 0.147 µM)
C[C@@H]1CN(c2c(F)c(N)c3c(=O)c(C(=O)O)cn(C4CC4)c3c2F)C[C@H](C)N1 [SPARFLOXACIN] |  | 0.008 µg/mL (≈ 0.0204 µM) |  |  | 0.125 µg/mL (≈ 0.319 µM) |  |  | < 0.002 µg/mL | 0.004 µg/mL (≈ 0.0102 µM) | 0.002 µg/mL (≈ 0.0051 µM) |  | 
